Experimental data as given in patent US20230129485A1, “SYSTEM AND METHOD FOR DETERMINING MATERIAL PROPERTIES OF MOLECULAR SYSTEMS FROM AN AB-INITIO PARAMETERIZED FORCE-FIELD” (InterX, Inc., priority 2021, published 2023).
Where two headings read alike, the source gives them in different places.

Tests used:
[1] = Free energy of hydration predicted with the QM-parameterized force field model (ARROW FF), classical MD and PIMD simulation in a water box; conditions: for Arrow PIMD8 Error: absolute error vs Exp (hydration)
From the text: For example, the example QM-parameterized force-field molecular simulation process 400 can use Bennett Acceptance Ratio (BAR) to compute the free energy of hydration/solvation of the molecule in water or any other solvent. In some implementations, the analysis of the molecular dynamics simulations includes analysis, predication, and visualization of ensemble properties of atoms/molecules from atomic and molecular trajectories using the optimized parameters of the QM-parameterized force field model (i.e., the quantum mechanics rule-based reasoning technique) and the QM-parameterized force field model.
(§1) In some simulations of the QM-parameterized force field molecular simulation process, the molecules were placed in a water or cyclohexane box of size 32×32×32 Å3. Particle-Mesh Ewald (PME) algorithm was used to compute the electrostatic interactions. A 32×32×32 grid mesh and 5th power spline interpolation order can be used to compute the inverse PME sum. 9 Å cutoffs were used to compute the direct PME sum as well as the exchange and dispersion interactions. Bulk corrections were applied to account for distance cut-off of dispersion interactions. Solvation free energies were computed by decoupling the interactions between the solute and the solvent molecules. Electrostatic, exchange-repulsion and dispersion interactions were switched off simultaneously using a lambda-dependent scaling (a scaling factor power=2 was used) and a soft-coring algorithm (maximal soft-coring radius=1.5 Å, soft-coring radius scaling factor power=1). 15 lambda points unequally spaced (X=0, 0.05, 0.1, 0.2, 0.3, 0.4, 0.5, 0.6, 0.7, 0.75, 0.8, 0.85, 0.9, 0.95, 1.0) were used to decouple the solute-solvent intermolecular interactions.
(§2) In some simulations of the QM-parameterized force field molecular simulation process, energy minimization (10,000 steps) using the steepest descent algorithm was initially performed on all the simulation systems. This was followed by a 50 ps equilibration and 1 ns production runs in the isothermal-isobaric ensemble (NPT). […] Pressure was maintained at 1 atm using a MTTK barostat (relaxation time=5 ps). A Multiple Time Step (MTS) algorithm was used to integrate the equations of motion both for the classical and path-integral runs. […] The calculations were performed using the QM-parameterized force field model.
Using the QM-parameterized force field model, the QM-parameterized force field device can compute or predict the solvation free energies using both the Bennett acceptance ratio (BAR) and thermodynamic integration (TI) method with <dH/dλ> values interpolated by cubic splines. […] FIG. 7A illustrates a <dH/dλ> dependence for desolvation of Anthracene in water. FIG. 7B illustrates accumulated statistical errors for TI calculations of AG desolvation of Anthracene in water.

[2] = Free energy of hydration predicted by polarizable AMOEBA force field, from literature; conditions: Table 5; error of AMOEBA hydration free energy vs experiment
[3] = Free energy of hydration predicted by General Amber Force Field (GAFF), from literature; conditions: Table 5; error of GAFF hydration free energy vs experiment
[4] = experimental, cited from earlier work
[5] = Free energy of hydration by COSMO implicit solvent model (MolPro ver. 2012); conditions: absolute error vs Exp (hydration)
Protocol: (§3) Due to unavailability of free energy data for the original COSMO model, the free energies of solvation for the molecule dataset are calculated using MolPro ver. […] The comparisons to other implicit solvent models such as SMD, PCM and COSMO-RS are limited to the overlap of the molecules computed using QM-parameterized force field model. The free energies of hydration as predicted by these implicit solvent models (SMD, PCM) were received.

[6] = Table 5; free energy of hydration, GAFF prediction taken from literature; cited from earlier work
[7] = Table 5; free energy of hydration, AMOEBA prediction taken from literature; cited from earlier work
[8] = CHEX/H2O partition coefficient (log D) predicted with the QM-parameterized force field model (ARROW FF)
From the text: In some simulations, the example QM-parameterized force-field molecular simulation process includes using the functional form of the bonded interactions, with force constants and equilibrium values fitted to QM energies at the MP2/aug-cc-pVTZ level of theory. In some simulations, solvents of water and cyclohexane are selected. Cyclohexane (CHEX) is nonpolar and equilibrates relatively quickly. Reliable experimental data for both CHEX solvation free energies, as well as for the CHEX/H2O partition coefficients are used in these simulations.
In some example simulations, solutes containing neutral chemical functional groups, for example carboxylic acids, alkanes, alkenes, aromatics, aldehydes, ketones, alcohols, amides, esters, thiols, sulfides, disulfides and heterocycles, are used. The simulations were performed independently by four groups using their own respective computational resources and architectures, and then averaged. FIGS. 9A-9C show solvation and hydration free energies predictions of various solutes, using the QM-parameterized force field model, in some embodiments.
The straight line is a line of agreement between experimental and simulated/predicted values, and the gray bar is the range or chemical accuracy. […] The molecules here are a subset of those in a) because only those with experimental values for CHEX solvation can be included.

[9] = Free energy of hydration by COSMO-RS
Protocol: as §3

[10] = CHEX/H2O partition coefficient, experimental, cited from earlier work; for Exp (log D): Table 3; for logD Exp (logD): Table 4
[11] = Free energy of solvation in cyclohexane predicted with the QM-parameterized force field model (ARROW FF), MD and PIMD; conditions: Table 4; for CHEX Arrow MD Error: error of MD cyclohexane solvation free energy vs experiment; for CHEX Arrow PIMD4 Error: error of PIMD4 cyclohexane solvation free energy vs experiment
From the text: Cyclohexane (CHEX) is nonpolar and equilibrates relatively quickly.
as §1, with “Particle-Mesh” for “In some simulations of the QM-parameterized force field molecular simulation process, the molecules were placed in a water or cyclohexane box of size 32×32×32 Å3. Particle-Mesh”
as §2
Using the QM-parameterized force field model, the QM-parameterized force field device can compute or predict the solvation free energies using both the Bennett acceptance ratio (BAR) and thermodynamic integration (TI) method with <dH/dλ> values interpolated by cubic splines.

[12] = experimental, cited from earlier work; remark: listed apart in the source
[13] = Free energy of hydration by Solvation Model Dielectric (SMD) implicit solvent model; conditions: absolute error vs Exp (hydration)
Protocol: as §3

[14] = implicit solvent model, values received; cited from earlier work
[15] = Free energy of hydration by Polarizable Continuum Model (PCM); conditions: absolute error vs Exp (hydration)
Protocol: as §3

[16] = implicit solvent model, values received; cited from earlier work; remark: listed apart in the source
[17] = Table 3, absolute error of MD hydration free energy vs experiment
[18] = Table 3, absolute error of PIMD8 hydration free energy vs experiment
[19] = Table 3, free energy of hydration
[20] = Table 4, error of MD hydration free energy vs experiment
[21] = Table 4, error of PIMD8 hydration free energy vs experiment
[22] = Table 4, neutral amino-acid analogues
[23] = Table 3, free energy of solvation in cyclohexane
[24] = Table 4, solvation free energy in cyclohexane

SMILES	water Arrow MD Error [1, 17]	water Arrow PIMD8 Error [1, 18]	Arrow PIMD8 Error [1]	water Exp (hydration) [4, 19]	COSMO/Molpro Error [5]	water Arrow MD Error [1, 20]	water Arrow PIMD8 Error [1, 21]	log D Arrow MD Error [8]	log D Arrow PIMD Error [8]	logD Arrow MD Error [8]	logD Arrow PIMD Error [8]	COSMO-RS error [9]	water Exp (hydration) [4, 22]	Exp (log D) [10]	logD Exp (logD) [10]	CHEX Arrow MD Error [11]	CHEX Arrow PIMD4 Error [11]	CHEX Exp (solvation) [12, 23]	CHEX Exp (solvation) [12, 24]	SMD Error [13]	further results
CCCCS [1-Butanethiol]	1.15 kcal/mol	0.50 kcal/mol	0.50 kcal/mol	-0.99 kcal/mol	3.06 kcal/mol																Arrow error ([1]; Table 5, error of Arrow PIMD8 hydration free energy vs experiment): 0.50 kcal/mol; AMOEBA error [2]: 0.87 kcal/mol; GAFF error [3]: 0.69 kcal/mol; Exp (hydration) ([4]; Table 5, free energy of hydration): -0.99 kcal/mol; GAFF [6]: -1.68 kcal/mol; AMOEBA [7]: -0.12 kcal/mol
Cc1c[nH]c2ccccc12 [3-methyl-indole]	2.00 kcal/mol	1.02 kcal/mol	1.02 kcal/mol	-5.88 kcal/mol	1.95 kcal/mol	2.00 kcal/mol	1.02 kcal/mol	1.29	0.76	1.29	0.76	0.99 kcal/mol	-5.88 kcal/mol	1.61	1.61	0.24 kcal/mol	0.01 kcal/mol	-8.08 kcal/mol	-8.08 kcal/mol		hydration error ([1]; predicted vs experimental free energy of hydration): -1 kcal/mol
Cc1c[nH]cn1 [Methylimidazole (His)]						0.40 kcal/mol	0.03 kcal/mol						-10.06 kcal/mol		−3.28	0.33 kcal/mol	0.09 kcal/mol		-5.59 kcal/mol		logD Arrow MD Error ([8]; Table 4, error of MD logD vs experiment): 0.05; logD Arrow PIMD Error ([8]; Table 4, error of PIMD logD vs experiment): 0.04
CCCCN [butanamine]	1.17 kcal/mol	0.28 kcal/mol	0.28 kcal/mol	-4.24 kcal/mol	1.55 kcal/mol	1.17 kcal/mol	0.28 kcal/mol	0.81	0.16	0.81	0.16	0.11 kcal/mol	-4.24 kcal/mol	−0.23	−0.23	0.06 kcal/mol	0.06 kcal/mol	-3.92 kcal/mol	-3.92 kcal/mol	0.74 kcal/mol	PCM free energy of hydration [14]: -2.80 kcal/mol; PCM Error [15]: 1.44 kcal/mol; SMD free energy of hydration [16]: -3.50 kcal/mol
CCC(=O)O [propionicacid]	0.24 kcal/mol	0.25 kcal/mol	0.25 kcal/mol	-6.46 kcal/mol	2.03 kcal/mol	0.24 kcal/mol	0.25 kcal/mol	0.22	0.05	0.22	0.05	0.15 kcal/mol	-6.46 kcal/mol	−2.30	−2.30	0.06 kcal/mol	0.18 kcal/mol	-3.32 kcal/mol	-3.32 kcal/mol	0.96 kcal/mol	PCM free energy of hydration [14]: -4.30 kcal/mol; PCM Error [15]: 2.16 kcal/mol; SMD free energy of hydration [16]: -5.50 kcal/mol
